≈ marks a conversion by molar mass, not a printed value. Where two headings read alike, the source gives them in different places.
Key:
[1] = Lipophilicity (LogMA), substance input parameter for PK-Sim; type: physicochemical
[2] = Solubility, substance input parameter; type: physicochemical; settings: input parameter for PK-Sim
[3] = Plasma clearance adapted in PK-Sim simulation to experimental literature concentration-time profiles; type: in vivo, humans; settings: human, read-out: plasma clearance CL
Procedure: Drug Dispos. 20, 417-419 (1999)) and a muscle concentration-time profile from the literature (M. Müller, B. v. Osten, R. Schmid, E. Piegler, I. Gerngross, H. Buchegger, H. G. Eichler: “Theophylline kinetics in peripheral tissues in vivo in humans”, Naunyn-Schmiedeberg's Arch. Pharmacol. 352, 438-441 (1995)) (FIG. 2).
The plasma clearance here is CL=0.40 ml/min/kg. (source: [12]) • b) Intravenous infusion of 240 mg over 10 minutes. […] (source: [13]) • c) Peroral administration of 200 mg of an immediately releasing formulation (mean and standard deviation of three bioequivalent immediate release capsules).

[4] = average value for an adult human; cited from earlier work
[5] = cited from earlier work

Cn1c(=O)c2[nH]cnc2n(C)c1=O [Theophylline]
Lipophilicity (LogMA) [1]: −0.2 | solubility [2]: 2800 µg/mL (≈ 15.5 mM) | clearance ([3]; intravenous infusion of 5.58 mg/kg over 20 minutes, adapted to experimental data (FIG. 2a)): 0.4 mL/min/kg | clearance ([3]; intravenous infusion of 240 mg over 10 minutes, adapted to experimental data (FIG. 2b)): 0.25 mL/min/kg | clearance ([3]; oral, peroral administration of 200 mg immediately releasing formulation, adapted to experimental data (FIG. 2c)): 0.5 mL/min/kg | Free plasma fraction [4]: 59% | plasma concentration below which a sufficient anti-asthmatic effect is not generally achieved [5]: below 5 mg/l
